The values that follow come from the supplement of paper PMC3493320.

A value given as a limit tells only on which side of the number the result lay.

The test has as its system NCI-H295R. As to the kind of experiment: IC50 (antiproliferative, ATP content). As to conditions: 48 h. The procedure, abridged: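 Adrenocortical carcinoma cells in 1536-well plates (1500 per well, serum-free DMEM plus ITS, overnight culture) were exposed for 48 h at 37 °C, 5% CO2 to pin-transferred compounds at 8 final concentrations ranging 0.6 nM to 46 µM. ATP content was then read as CellTiter-Glo luminescence and normalised to vehicle and positive-control wells. The IC50 came from logistic curve fits, and any compound lacking a concentration response was recorded as above the top dose.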
What is called IC50 is the midpoint of a concentration-inhibition curve. With `CCC(=O)O[C@@](Cc1ccccc1)(c1ccccc1)[C@@H](C)CN(C)C.O=S(=O)(O)c1ccc2ccccc2c1`, the IC50 was greater than 46 µM.
In turn, `Nc1ccc([As](=O)(O)O)cc1` gave an IC50 greater than 46 µM.
On to `NC[C@@H]1O[C@H](O[C@H]2[C@@H](O)[C@H](O[C@@H]3[C@@H](O)[C@H](N)C[C@H](N)[C@H]3O[C@H]3O[C@H](CO)[C@@H](O)[C@H](O)[C@H]3N)O[C@@H]2CO)[C@H](N)[C@@H](O)[C@@H]1O.O=S(=O)(O)O`, for which the IC50 is greater than 46 µM.
As to `OC[C@H]1O[C@@H](O[C@H]2[C@H](O)[C@@H](O)[C@H](O)O[C@@H]2CO)[C@H](O)[C@@H](O)[C@@H]1O`, the IC50 is greater than 46 µM.
On to `CCCC(=O)Nc1c(I)cc(I)c(CC(CC)C(=O)[O-])c1I.[Na+]` (stereo not given), for which the IC50 was greater than 46 µM.
`OCc1ccc(Cl)cc1Cl` returned an IC50 greater than 46 µM.
As for `CN(C)CCc1c[nH]c2ccc(C[C@H]3COC(=O)N3)cc12`, the figure is greater than 46 µM.
`Cc1cc(-c2ccccc2)nnc1NCCN1CCOCC1.Cl.Cl` returned an IC50 greater than 46 µM.
Compound `NC(=O)c1ncn([C@@H]2O[C@H](CO)[C@@H](O)[C@H]2O)c1O` gave an IC50 greater than 46 µM.
In the case of `CCCc1cc(=O)[nH]c(=S)[nH]1`, the IC50 is greater than 46 µM.
The compound `CCOc1ccc2nc(S(N)(=O)=O)sc2c1` displayed an IC50 greater than 46 µM.
In turn, `N[C@H](C(=O)O)[C@@H](O)c1ccc(O)c(O)c1` returned an IC50 greater than 46 µM.
As for `[C@]43(\C(=C2\C(c1c(O)cccc1[C@](C2C[C@H]3[C@@H](/C(=C(\C4=O)C(NCN5CCCC5)=O)O)N(C)C)(O)C)=O)O)O` (stereo not given in full), the figure is greater than 46 µM; as for `NC(=O)OCC(O)COc1ccc(Cl)cc1` (stereo not given), greater than 46 µM; as for `ClC(Cl)(Cl)Cl`, greater than 46 µM.
For `O.O=C(O)[C@@H]1[C@H]2C[C@H]3c4[nH]c5ccccc5c4CCN3C[C@@H]2CC[C@@H]1O` the value was greater than 46 µM.
`CC(=O)c1ccc2c(c1)N(CCCN1CCC(CCO)CC1)c1ccccc1S2` showed an IC50 greater than 46 µM.
Compound `C[C@H](Cn1cnc2c(N)ncnc21)OCP(=O)(O)O` came in with an IC50 greater than 46 µM.
Take `Cl[C@]1([C@](C)2C=C3)[C@@H](O)C[C@@]([C@]([C@@](CO)=O)(O)[C@H]4C)(C)[C@](C4)([H])[C@@]([H])1CCC2=CC3=O`: the IC50 is greater than 46 µM.
As for `Cc1ccc(/C(=C\CN2CCCC2)c2ccccn2)cc1`, the half-inhibitory concentration (IC50) is greater than 46 µM.
Take `OC[C@H]1O[C@@H]2O[C@H]3[C@H](O)[C@@H](O)[C@@H](O[C@H]4[C@H](O)[C@@H](O)[C@@H](O[C@H]5[C@H](O)[C@@H](O)[C@@H](O[C@H]6[C@H](O)[C@@H](O)[C@@H](O[C@H]7[C@H](O)[C@@H](O)[C@@H](O[C@H]1[C@H](O)[C@H]2O)O[C@@H]7CO)O[C@@H]6CO)O[C@@H]5CO)O[C@@H]4CO)O[C@@H]3CO`: the IC50 is greater than 46 µM.
With `CC(C)(C)CC(C)(C)c1ccc(OCCO)cc1`, the IC50 is greater than 46 µM.
Consider `OC(O)C(Cl)(Cl)Cl`, for which the IC50 is greater than 46 µM.
`COc1cc(C(=O)NCc2ccc(OCCN(C)C)cc2)cc(OC)c1OC.Cl` returned an IC50 greater than 46 µM.
As for `CC(S)C(=O)NCC(=O)O` (stereo not given), the figure is greater than 46 µM.
For `CC1=CCC(C(C)(C)O)CC1` (stereo not given) the value was greater than 46 µM.
For `Cc1cc(C)nc(NS(=O)(=O)c2ccc(N)cc2)n1` the value was greater than 46 µM.
Compound `CO[C@@H]1[C@@H](O[C@@H]2O[C@H](C)[C@@H](O[C@H]3C[C@@](C)(O)[C@@H](O)[C@H](C)O3)[C@H](N(C)C)[C@H]2O)[C@@H](CC=O)C[C@@H](C)[C@@H](O[C@@H]2CC[C@H](N(C)C)[C@@H](C)O2)/C=C/C=C/C[C@@H](C)OC(=O)C[C@H]1O` yielded an IC50 greater than 46 µM.
With `O.O=S(=O)([O-])CC(S)CS.[Na+]` (stereo not given), the IC50 was greater than 46 µM.
As for `CC1(C)[C@@H](OC(=O)CCC(=O)[O-])CC[C@]2(C)[C@H]3C(=O)C=C4[C@@H]5C[C@@](C)(C(=O)[O-])CC[C@]5(C)CC[C@@]4(C)[C@]3(C)CC[C@@H]12.[Na+].[Na+]`, the figure is greater than 46 µM; as for `Cc1ncc(CNC(=O)N(CCCl)N=O)c(N)n1`, greater than 46 µM; as for `Cc1ccccc1`, greater than 46 µM.
For `[C@@H]1(O[C@H](CS1)N\2C(\N=C(/C=C/2)N)=O)CO` the value was greater than 46 µM.
`C[C@H](CCC(=O)[O-])[C@H]1CC[C@H]2[C@@H]3CC[C@@H]4C[C@H](O)CC[C@]4(C)[C@H]3C[C@H](O)[C@]12C.[Na+]` came in with an IC50 greater than 46 µM.
As for `COc1ccccc1N1CCNCC1.Cl`, the figure is greater than 46 µM.
In turn, `CC(C(O)c1ccc(O)cc1)N1CCC(Cc2ccccc2)CC1` (stereo not given) showed an IC50 greater than 46 µM.
As for `C=CCOc1ccc(CC(=O)O)cc1Cl`, the figure is greater than 46 µM.
For `Cc1cccc(C)c1NC(=O)CN1CCCCCC1` the value was greater than 46 µM; for `O[C@H]1[C@H]2[C@H](O)CCCN2C[C@H]1O`, greater than 46 µM; for `Cl.Nc1ccn([C@@H]2O[C@H](CO)[C@@H](O)C2(F)F)c(=O)n1`, greater than 46 µM.
For `CN[C@H](CC(C)C)C(=O)N[C@H]1C(=O)N[C@@H](CC(N)=O)C(=O)N[C@H]2C(=O)N[C@H]3C(=O)N[C@H](C(=O)N[C@@H](C(=O)O)c4cc(O)cc(O)c4-c4cc3ccc4O)[C@H](O)c3ccc(c(Cl)c3)Oc3cc2cc(c3O[C@@H]2O[C@H](CO)[C@@H](O)[C@H](O)[C@H]2O[C@H]2C[C@](C)(N)C(O)[C@H](C)O2)Oc2ccc(cc2Cl)[C@H]1O.Cl` (stereo not given in full), the IC50 was greater than 46 µM.
As for `CCCC(C)C1(CC)C(=O)N=C([S-])NC1=O.[Na+]` (stereo not given), the figure is greater than 46 µM.
Compound `COc1ccc(C(=O)N2CCN(CC(=O)N3CCOCC3)CC2)cc1` returned an IC50 greater than 46 µM.
As to `CN(C)CCOC(c1ccccc1)c1ccccc1`, the IC50 is greater than 46 µM.
As for `NCCCC[C@H](N)C(=O)O`, the figure is greater than 46 µM.
For `Brc1c(NC2=NCCN2)ccc2nccnc12`, the IC50 is greater than 46 µM.
For the compound `C[C@H](O)CN(C)C`, the half-inhibitory concentration (IC50) was greater than 46 µM.
In turn, `CCCC(C)(COC(N)=O)COC(N)=O` gave an IC50 greater than 46 µM.
Compound `NC(=S)N/N=C/c1cccnc1` gave an IC50 greater than 46 µM.
As to `O=[C@](O)[C@H]2N(C([C@H](C)N[C@H]([C@@](OCC)=O)CCC3=CC=CC=C3)=O)[C@@]1([H])CCCC[C@@]([H])1C2`, the IC50 is greater than 46 µM.
Compound `Cn1cnc2c1c(=O)[nH]c(=O)n2C` had a concentration for half-maximal inhibition (IC50) greater than 46 µM.
For `COc1ccccc1OCC(O)CN1CCN(CC(=O)Nc2c(C)cccc2C)CC1` (stereo not given) the value was greater than 46 µM.
As for `CC1CCC(C(C)C)C(OC(=O)c2ccccc2O)C1` (stereo not given), the figure is greater than 46 µM; as for `Cc1ncc2n1-c1ccc(Cl)cc1C(c1ccccc1F)=NC2.Cl`, greater than 46 µM; as for `CN[C@@H](C)[C@@H]1CC[C@@H](N)[C@@H](O[C@H]2[C@H](O)[C@@H](O[C@H]3OC[C@](C)(O)[C@H](NC)[C@H]3O)[C@H](N)C[C@@H]2N)O1.O=S(=O)(O)O`, greater than 46 µM.
Consider `OCC1(CO)COC(C(Cl)(Cl)Cl)OC1`, for which the IC50 is greater than 46 µM.
In turn, `N[C@@H](C\C1=C\N=C/N1)C(O)=O.Cl` gave an IC50 greater than 46 µM.
Consider `Cc1cc2cc3c(C)cc(=O)oc3c(C)c2o1`, for which the IC50 was greater than 46 µM.
In turn, `NC(=S)NS(=O)(=O)c1ccc(N)cc1` returned an IC50 greater than 46 µM.
With `CC(=O)N(CC(O)CN(C(C)=O)c1c(I)c(C(=O)NCC(O)CO)c(I)c(C(=O)NCC(O)CO)c1I)c1c(I)c(C(=O)NCC(O)CO)c(I)c(C(=O)NCC(O)CO)c1I` (stereo not given), the IC50 was greater than 46 µM.
